Activity calls are given as the source filed them.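 Rule for the calls: active = IC50 of 25 µM or lower, counted as toxic to worms; inactive = the rest.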

This data set has as its system C. elegans VP596, manual health composite score, 20-22 h. Description: C. elegans worm health toxicity scoring, SAR follow-up, cytotoxicity control for SKN-1 inhibitor project, whole organism, strain VP596, composite health score (AID 652161).

For `CCOC(=O)Nc1nc(-c2ccc(F)cc2F)cs1`, the IC50 was 22.9 µM.

As for `Brc1ccc(CSc2nnc(-c3cccnc3)o2)cc1`, the IC50 was 25.2 µM (inactive).

As to `c1ccc(-c2csc(-c3ccncc3)n2)cc1`, the IC50 was 23.9 µM.

As for `Brc1ccc(-c2nnc(-c3ccco3)o2)cc1`, the IC50 is 12.9 µM.

For the molecule `c1ccc(-c2nc(-c3ccncc3)no2)cc1`, the IC50 is > 64 µM (inactive).

For the molecule `O=C(/C=C/Nc1ccc(F)cc1F)c1cccs1`, the IC50 was 21.4 µM.

Take `O=C(Nc1nc(-c2ccc(Cl)s2)cs1)c1ccccc1`: the IC50 is > 64 µM (inactive).

Turning to `CSc1cccc(NC(=O)c2cccc3cccnc23)c1`, the IC50 was 47 µM (inactive).

Take `O=C(/C=C/Nc1ccc(Br)cc1F)c1ccco1`: the IC50 is 14.8 µM.

`Cc1ccc(Nc2nc(-c3cccs3)cs2)nc1`: the IC50 was 27.3 µM (inactive).

As to `Cc1cc(OCc2cccc(Cl)c2)c(C)cc1CN1CCOCC1`, the IC50 was 21 µM.

For the molecule `Fc1ccc(-c2csc(-c3ccncc3)n2)cc1`, the IC50 is 10.6 µM.

Consider `Cc1oc(-c2ccc(-c3ccccc3)cc2)nc1CN(C)C1CCOC1` (stereo not drawn), for which the IC50 was > 64 µM (inactive).

Take `Cc1nc2ccccc2cc1OCc1ccc(F)cc1`: the IC50 is 8.59 µM.

Turning to `Cc1ccc(-c2noc(-c3cccs3)n2)cc1`, the IC50 was 10.6 µM.

Consider `O=C(/C=C/Nc1ccc(F)cc1F)c1ccco1`, for which the IC50 was 24.1 µM.

As to `Brc1ccc(CSc2nnc(-c3ccco3)o2)cc1`, the IC50 was 8.76 µM.

Regarding `O=C(Nc1ccc(CN2CCOCC2)cc1)c1cc2ccccc2o1`, the IC50 was 35.3 µM (inactive).

With `COc1cc(CNC2CCCC2)cc(Cl)c1OCc1ccc(F)cc1`, the IC50 is 46.9 µM (inactive).

On to `Cc1ccc(N=C/C(C(=O)C(F)(F)F)=C(\O)c2ccco2)cc1Cl`, for which the IC50 was 27.2 µM (inactive).

Consider `O=C(Nc1nc2c(ccc3ccccc32)s1)c1ccco1`, for which the IC50 is 20.3 µM.

Take `O=C(Nc1nc(-c2ccccc2)cs1)c1cccs1`: the IC50 is 15 µM.

As for `c1ccc(SCc2cc(-c3ccccc3)no2)cc1`, the IC50 is 11.5 µM.

`Fc1ccc(COc2ccc(-c3nnco3)cc2)cc1`: the IC50 was 34.9 µM (inactive).

For the molecule `CCOC(=O)c1c(-c2ccc(-c3ccccc3)cc2)csc1NC(=O)CNCCN(C)C`, the IC50 is > 64 µM (inactive).

With `Cc1ccc(CSc2nnc(-c3ccco3)o2)cc1`, the IC50 is 19.1 µM.

As for `CCOc1cc(CNC2CCCC2)cc(Cl)c1OCc1ccccc1`, the IC50 is > 64 µM (inactive).

As to `Clc1ccc(-c2nnc(-c3ccco3)o2)cc1`, the IC50 was 16.9 µM.

Take `O=C(Nc1nccs1)c1ccc2ccccc2n1`: the IC50 was 16 µM.

As for `O=C(/C=C/Nc1ccc(F)c(Cl)c1)c1ccco1`, the IC50 was 18.8 µM.

Take `Clc1ccc(Nc2nc(-c3cccs3)cs2)nc1`: the IC50 is 12.4 µM.

Turning to `Cc1ccccc1-c1noc(-c2cccs2)n1`, the IC50 is 7.83 µM.

For `Fc1ccc(COc2ccc(-c3nnco3)cc2)c(Cl)c1`, the IC50 was 8.11 µM.

Take `CCc1ccc(-c2nc(-c3ccncc3)no2)cc1`: the IC50 was 10.6 µM.

For the molecule `c1ccc2oc(SCc3nc4ccccc4s3)nc2c1`, the IC50 is 13.9 µM.

On to `O=C(Nc1nc(-c2ccc(Cl)s2)cs1)c1cccs1`, for which the IC50 is > 64 µM (inactive).

On to `O=C(Nc1nc(-c2ccc(Cl)s2)cs1)c1ccco1`, for which the IC50 is 16.1 µM.

Turning to `CCOc1cc(CNC2CCCC2)cc(Cl)c1OCc1ccc(F)cc1`, the IC50 was > 64 µM (inactive).

With `O=C(/C=C/Nc1ccc(F)c(F)c1)c1cccs1`, the IC50 is > 64 µM (inactive).

In the case of `Clc1ccccc1-c1nnc(-c2ccccc2Cl)o1`, the IC50 was 20.9 µM.

As to `Fc1ccc(-c2csc(Nc3ccccn3)n2)cc1`, the IC50 is 7.02 µM.

Regarding `Clc1ccccc1-c1nc(-c2ccncc2)no1`, the IC50 was 15.3 µM.

As to `CCOc1ccc(-c2nc(-c3cccnc3)no2)cc1`, the IC50 is 8.88 µM.

For the molecule `COc1cc(CNC(C)c2ccccc2)cc(Br)c1OCc1ccc(F)cc1` (stereo not drawn), the IC50 was > 64 µM (inactive).

As to `c1ccc(Nc2nc(-c3cccs3)cs2)nc1`, the IC50 is 14.9 µM.

For `COc1ccc(C(=O)Nc2nc(-c3cccs3)cs2)cc1`, the IC50 was > 64 µM (inactive).

For the molecule `CCOc1cc(CNCCSc2nnnn2C)cc(Br)c1OCc1ccc(F)cc1`, the IC50 was 16 µM.

As to `Brc1ccc(-c2nc(-c3ccccc3)no2)o1`, the IC50 was 11.9 µM.

For `c1ccc2sc(SCc3ccc(-c4nnco4)cc3)nc2c1`, the IC50 is 14.5 µM.

For the molecule `COc1cc(CNC(C)(C)CO)cc(Br)c1OCc1ccc(Cl)cc1`, the IC50 was 56.3 µM (inactive).

As for `O=C(/C=C/c1cccs1)c1ccc(Br)cc1`, the IC50 was 11.6 µM.

In the case of `Cc1ccc2nc(-c3ccc(NC(=S)NC4CC(C)(C)NC(C)(C)C4)cc3)sc2c1`, the IC50 was 62 µM (inactive).

For `O=C(/C=C/c1ccccc1)Nc1ccc(CN2CCOCC2)cc1`, the IC50 was > 64 µM (inactive).

With `CC(C)c1ccc(C(=O)Nc2ccc(CN3CCOCC3)cc2)cc1`, the IC50 was 14.7 µM.

In the case of `Clc1ccc(-c2nnc(-c3ccccc3)o2)c(Cl)c1`, the IC50 is 27.9 µM (inactive).

For the molecule `c1ccc(-c2csc(Nc3ccccn3)n2)cc1`, the IC50 is 6.56 µM.

Turning to `O=C(/C=C/Nc1ccccc1F)c1cccs1`, the IC50 was 35.2 µM (inactive).

Consider `O=C(/C=C/c1ccc(Br)cc1)c1ccc(NC2=NCCCS2)cc1`, for which the IC50 was 20.1 µM.

One may read the IC50 as the concentration that gives 50% inhibition.

The values above are taken from PubChem BioAssay AID652161 (Sanford-Burnham Center for Chemical Genomics, 2013).
